Read-outs that look alike come from different tables or passages of the source. Marks after values point to notes of the source that are not given here.
Key:
[1] = test system: coagulation tests (PT, INR, PTT); test: Coagulation tests (PT, INR, PTT) after single ATQ dose (Example 4); details: for Highest postdose PT value above ULN: one subject
Description: The INR is the ratio of a subject's prothombin time (PTtest) to the prothombin time of a normal (control) sample (PTnormal), raised to the power of the International Sensitivity Index (ISI) value for the analytical system:
“Prothrombin time” or “PT” refers to the time it takes the blood plasma of a subject to clot after the addition of a thromboplastin reagent. “Thromboplastin reagent” refers to a standardized commercial product which is used in blood coagulation assays to measure blood clotting time. Non-limiting examples of thromboplastin reagents include RecombiPlasTin (Beckman Coulter, Brea, Calif.), INNOVN® and THROMBOREL® (Dade Behring, Liederbach, Germany).
As used herein, the terms “activated partial thromboplastin time” or “aPTT” or “partial thromboplastin time” or “PTT,” refer to the time it takes the blood plasma of a subject to clot after the addition of a phospholipid (i.e., partial thromboplastin) and calcium chloride. Non-limiting examples of phospholipids for use in determining aPTT include silica and kaolin.

[2] = test system: protein C; test: Extended coagulation biomarker panel: protein C; assay type: in vivo, human; details: Part 2, 0.67 g TID, Day 4
Description: (§1) In Part 1 the extended panel was collected at screening and at check-in (Day −1) and Day 2 of each period unless the study results warranted a different sampling schedule. In Part 2, the same of the exploratory coagulation biomarkers were collected at screening, check-in, Day 4, and Day 8 in Cohorts 1 and 2, or at check-in, Day 7, and Day 14 in Cohorts 3 and 4 with the following exception: in Cohorts 3 and 4, platelet function was collected at check-in only or when medically indicated.

[3] = Multiple ascending dose pharmacokinetics of ATQ (Example 5 Part 2); assay type: in vivo, human; details: for Cmax / AUC: both sexes, human, plasma, oral; for AUC: read-out: AUC(0-tau, 24)
Experimental: The study was conducted in 2 parts. Part 1 was conducted in healthy male subjects only while Part 2 was conducted in healthy male and female subjects. The intent of this study part was to optimize the dosage regimen and diet for the multiple-dose safety and tolerance Part 2 of the study. All plasma ATQ concentrations were determined using a GLP validated bioanalytical method. ATQ was administered as an oral solution in oil (0.49 g/mL). The placebo solution consisted of olive oil alone.
Part 2 was conducted as a multiple-dose dose-escalation design. […] Dose administration was subsequently switched to a BID regimen administered for 14 days.
Part 2 was conducted as a multiple-dose dose-escalation design in male and female subjects. None of the subjects who participated in Part 1 of the study were eligible to participate in Part 2. A total of 32 subjects were enrolled in Part 2. Twenty (20) subjects received ATQ or placebo for one week in a single-blind, randomized, placebo-controlled design: Cohort 1 […] low dose (1 g/day as 0.33 g TID) and Cohort 2 […] midrange dose (2 g/day as 0.67 g TID). In each cohort, 8 subjects received ATQ and 2 subjects received placebo under fed conditions. An additional 12 subjects were subsequently enrolled into 2 additional cohorts of 6 subjects each. The 12 subjects were randomized to receive one of the two following ATQ doses: Cohort 3 (N=6) low dose (0.5 g BID) and Cohort 4 (N=6) intermediate dose (0.75 g BID) administered for 14 days with a standard meal. All subjects participating in Cohorts 3 and 4 received ATQ; there was no placebo arm.
For Part 2, serial blood samples for the measurement of the plasma levels of ATQ were collected in Cohorts 1 and 2 as part of a 3 times daily regimen prior to and over the first 6-hour dosing interval following administration of the first dose on Day 1, prior to the morning dose on Days 3, 5, and 6, over the 6-hour and 12-hour dosing intervals following the afternoon and evening dose, respectively, and up to 48 hours after the final (morning) dose on Day 7.
In Cohorts 3 and 4, serial blood samples for the measurement of the plasma levels of ATQ were collected for the twice-daily regimen prior to and over the 12-hour dosing interval following the first dose administration on Day 1, prior to the morning dose on Days 4, 7, 10, 13, and 14, and over the 12-hour dosing interval after the final (morning) dose on Day 14. Multiple-dose PK data over the dose range of 1.0-g/day (BID and TID), 1.5-g/day (BID), and 2.0-g/day (TID) were generated in this study.
Part 2 multiple-dose results are provided for Day 7 (Cohorts 1 and 2) or Day 14 unless otherwise indicated. Parameters designated with the term 24 refer to pharmacokinetic parameters derived for a 24-hour TID or BID dosing period.

[4] = test system: protein S; test: Extended coagulation biomarker panel: protein S; assay type: in vivo, human; details: Part 2, 0.67 g TID, Day 4
Description: as §1

[5] = Safety and tolerability of (R,R,R) α-tocopherol quinone in healthy male and female subjects (Example 1); details: high and moderate fat meal
Experimental: The safety and tolerability of (R,R,R) α-tocopherol quinone was tested in healthy male and female subjects. Twelve subjects were divided into two groups of six subjects each (Groups A and B). Group A was administered 1.5 g of a (R,R,R) α-tocopherol quinone twice a day for one day. Group B was administered 1.0 g of (R,R,R) α-tocopherol quinone three times a day for 1 day. Both groups of subjects were fed under high and moderate fat meal content.

[6] = test system: factor X; test: Extended coagulation biomarker panel: factor X; assay type: in vivo, human
Description: as §1

[7] = test system: factor V; test: Extended coagulation biomarker panel: factor V; parameters: species or system human; details: in vivo
Description: as §1

[8] = Cohort 5 (6-g ATQ), subject with highest PT
[9] = Cohort 6 (2.2-g as 0.735-g TID)
[10] = of the 48 subjects who received ATQ
[11] = 1-g/day (0.33 g TID), mean, N = 8
[12] = 1-g/day (0.5 g BID), morning dose data, N = 5
[13] = 1.5-g/day (0.75 g BID), morning dose data, N = 6
[14] = 2-g/day (0.67 g TID), mean, N = 7

CC1=C(C)C(=O)C(CC[C@](C)(O)CCC[C@H](C)CCC[C@H](C)CCCC(C)C)=C(C)C1=O [ATQ, alpha-tocopherolquinone]
INR change ([1]; 2 g administered as a single entity (2 g QD)): NO INR change | Subjects with 24-hour postdose PT value above ULN ([1]; Cohort 3 (1-g ATQ)): 2 of 8 | 24-hour postdose PT value above ULN ([1]; Cohort 3 (1-g ATQ), 2 of 8 subjects): 5.2% | Subjects with postdose PT values above ULN ([1]; Cohort 5 (6-g ATQ)): 5 of 8 | Highest postdose PT value above ULN ([1]; Cohort 5 (6-g ATQ)): 39.1% | Increase in INR above ULN [1, 8]: 23.1% | Increase in PTT above ULN [1, 8]: 5.6% | Subjects with postdose PT values above ULN [1, 9]: 4 of 8 | Highest postdose PT value above ULN [1, 9]: 20.9% | Increase in INR above ULN ([1]; Cohort 6 (2.2-g as 0.735-g TID), subject with highest PT): 7.7% | Subjects with a 24-hour postdose INR value above ULN [1, 10]: 2 subjects | Subjects with a 24-hour postdose PTT value above ULN [1, 10]: 1 subject | Subjects with postdose PT values above the upper limit of normal (ULN) [1, 10]: 11 subjects | Time for INR and PTT values to return to normal range ([1]; postdose, all subjects): ≤ 48 h | Effect on the coagulation tests, especially PT and INR ([1]; single doses, 48 subjects who received ATQ): slight but not clinically significant effect | Reversibility of changes in hemostasis ([1]; upon cessation of the treatment): fully reversible | Protein C activity [2]: 109% | Time for trough concentrations to reach steady state ([3]; 0.33 g TID): ≤ 3 days | Time for trough concentrations to reach steady state ([3]; 0.5 g BID): ≤ 4 days | Time for trough concentrations to reach steady state ([3]; 0.67 g TID): ≤ 3 days | Time for trough concentrations to reach steady state ([3]; 0.75 g BID): 13 days | Cmin ([3]; 1-g/day (0.33 g TID), Day 7, mean, N = 8): 583 ng/mL | CLpo, 24 ([3]; 1-g/day (0.33 g TID), daily dose divided by mean AUC(0-tau, 24)): 24.2 [c] L/h | Cavg, 24 h [3, 11]: 1730 ng/mL | Fluct24 h [3, 11]: 189% | TimeHgh(0-24) (time above the pharmacologically relevant concentration of 0.5 μg/mL) ([3]; 1-g/day (0.33 g TID), median, N = 8): 23.80 h | TimeHgh(0-24) (time above the pharmacologically relevant concentration of 0.5 μg/mL) ([3]; 1-g/day (0.5 g BID), 2 times the 0-12 hour morning dose value, N = 5): 19.68 [e] h | Cmin ([3]; 1-g/day (0.5 g BID), Day 14, mean, N = 5): 308 ng/mL | CLpo, 24 ([3]; 1-g/day (0.5 g BID), morning dose data, Day 14, N = 5): 57.5 L/h | Cavg, 24 h [3, 12]: 1040 ng/mL | Fluct24 h [3, 12]: 145% | Estimated daily AUC higher with TID than BID ([3]; 1-g/day: 0.33 g TID versus 0.5 g BID): approximately 66% | TimeHgh(0-24) (time above the pharmacologically relevant concentration of 0.5 μg/mL) ([3]; 1.5-g/day (0.75 g BID), 2 times the 0-12 hour morning dose value, N = 6): 21.84 [e] h | Cmin ([3]; 1.5-g/day (0.75 g BID), Day 14, mean, N = 6): 443 ng/mL | CLpo, 24 ([3]; 1.5-g/day (0.75 g BID), morning dose data, Day 14, N = 6): 53.5 L/h | Cavg, 24 h [3, 13]: 1380 ng/mL | Fluct24 h [3, 13]: 147% | Cmin ([3]; 2-g/day (0.67 g TID), Day 7, mean, N = 7): 1220 ng/mL | CLpo, 24 ([3]; 2-g/day (0.67 g TID), daily dose divided by mean AUC(0-tau, 24)): 18.5 [c] L/h | Cavg, 24 h [3, 14]: 4480 ng/mL | Fluct24 h [3, 14]: 177% | TimeHgh(0-24) (time above the pharmacologically relevant concentration of 0.5 μg/mL) ([3]; 2-g/day (0.67 g TID), median, N = 7): 23.87 h | Accumulation of Cmax ([3]; BID administration): did not accumulate | Cmax ([3]; 0.33 g, 1-g/day (0.33 g TID), Day 7, N = 8, read-out: Cmax last dose): 2400 ng/mL | Cmax ([3]; 0.33 g, 1-g/day (0.33 g TID), highest Cmax of the 3 serial TID profiles, Day 6 lunch, N = 8, read-out: Cmax): 3530 ng/mL | Cmax ([3]; 0.5 g, 1-g/day (0.5 g BID), Day 14, N = 5, read-out: Cmax last dose): 1890 ng/mL | Cmax ([3]; 0.5 g, 1-g/day (0.5 g BID), Day 14 morning dose, N = 5, read-out: Cmax): 1890 ng/mL | Cmax ([3]; 0.67 g, 2-g/day (0.67 g TID), Day 7, N = 7, read-out: Cmax last dose): 4280 ng/mL | Cmax ([3]; 0.67 g, 2-g/day (0.67 g TID), highest Cmax of the 3 serial TID profiles, Day 6 dinner, N = 7, read-out: Cmax): 9000 ng/mL | AUC ([3]; 0.75 g, 1.5-g/day (0.75 g BID), 2 times the 0-12 hour morning dose value, N = 6): 33200 ng·h/mL | Cmax ([3]; 0.75 g, 1.5-g/day (0.75 g BID), Day 14, N = 6, read-out: Cmax last dose): 2540 ng/mL | Cmax ([3]; 0.75 g, 1.5-g/day (0.75 g BID), Day 14 morning dose, N = 6, read-out: Cmax): 2540 ng/mL | AUC ([3]; 1 g/day, 1-g/day (0.33 g TID), mean, N = 8): 41400 ng·h/mL | AUC ([3]; 1 g/day, 1-g/day (0.5 g BID), 2 times the 0-12 hour morning dose value, N = 5): 25000 ng·h/mL | AUC ([3]; 2 g/day, 2-g/day (0.67 g TID), mean, N = 7): 108000 ng·h/mL | Maximum concentrations higher with TID than BID ([3]; following the final morning dose, similar doses): approximately 27% | Dose proportionality of exposure following multiple-dose administration ([3]; within TID (2-fold) or BID (1.5-fold) dose range): approximately proportional increases | Decrease from baseline activity of protein S [4]: 56% | Safety and tolerability (side effects) ([5]; Group A: 1.5 g twice a day for one day): no side effects were observed | Safety and tolerability (side effects) ([5]; Group B: 1.0 g three times a day for 1 day): no side effects were observed | Decrease from baseline activity of factor X ([6]; Part 2, 0.67 g TID, Day 4): 62% | Decrease from baseline activity of factor X ([6]; Part 2, Day 14): 68% | Effect on the activity of factor V [7]: did not appear to affect
